According to patent US10576145B2, “CD200 inhibitors and methods of use thereof” (REGENTS OF THE UNIVERSITY OF MINNESOTA, priority 2014, dated 2020):
“Also recorded” adds a separate entry of the source.

Key:
[1] = system: GL261 tumor bearing mice; assay: OVA+Poly:ICLC vaccination of GL261 tumor bearing mice +/- CD200R antagonist: OVA-specific CD8 T cells and recall cytokines; type: in vivo, C57BL/6 mice; conditions: for SIINFEKL-specific CD8 T cells (OVA-specific T cell expansion): blood, flow cytometry
Excerpt: FIGS. 2A-2B. FIG. 2A) Vaccination scheme. Tumor bearing or non-tumor bearing mice were vaccinated on day 2 and 8 with an agonist (4012) or antagonist (6059) only, and on days 3-6 and 10 with OVA+Poly:ICLC+/−the competitive inhibitor 6059 (antagonist of a agonist). FIG. 2B) Mice were bled on day 10, whole blood was stained with an anti-CD8 and SI[[N]]INFEKL (SEQ ID NO: 11) specific detramer, lysed and analyzed by flow cytometry.
FIGS. 3A-3B. Tumor bearing or non-tumor bearing mice were vaccinated on day 2 and 8 with an agonist or antagonist only, and on days 3-6 and 10 with OVA+Poly:ICLC+/−the competitive inhibitor 6059 (antagonist of a agonist). On day 10, were harvested and stimulated with OVA protein to measure a recall response via cytokine release. FIG. 3A) TNF alpha (PG/ML) levels from tumor bearing mice. FIG. 3B) INF gamma (PG/ML) levels in tumor bearing mice.
FIGS. 12A-12C. […] Tumor and non-tumor bearing mice were vaccinated with OVA+Poly:ICLC+/−the CD200R antagonist 6059 and analyzed for FIG. 12A) SIINFEKL/Kb+CD8+ T cell expansion (‘SIINFEKL’ disclosed as SEQ ID NO: 11). FIG. 12B) Lymphocytes were harvested and stimulated with SIINFEKL peptide (SEQ ID NO: 11). Supernatants were analyzed for TNFα and IFNγ secretion. FIG. 12C) The antagonist 6059 was added to OVA+exosomes. Error bars indicate +/−SEM (n=4/group; *P<0.05; by t-test). FIGS. 12A-12C discloses ‘SIINFEKL’ disclosed as SEQ ID NO: 11.
FIGS. 18A-18D. […] (FIG. 18A & FIG. 18B) Tumor bearing mice were vaccinated with OVA+Poly:ICLC+/−antagonist then analyzed for OVA-specific T cells and cytokine production following in vitro restimulation with OVA. Tumor bearing mice were vaccinated with saline (n=10), tumor lysate+CpG (n=10) or tumor lysate+CpG+antagonist 6059 (n=10). (FIG. 18C) Mice were imaged weekly for tumor growth and (FIG. 18D) followed for survival. Error bars are ±SEM, *p<0.05, ** p<0.001 was determined by one-way ANOVA, post hoc analysis by Dunn's multiple comparison test, log-rank analysis was used for survival. […]
Anti-mouse CD8α-Pacific Blue (clone 53-6.7) was purchased from eBioscience. A SIINFEKL/K^b dextramer-PE (‘SIINFEKL’ disclosed as SEQ ID NO: 11) was used for detection of SIINFEKL/K^b-binding CD8 T-cells (Immunodex) (‘SIINFEKL’ disclosed as BEQ ID NO: 11). […] A 100 μl sample of whole blood was immediately analyzed for percentage of MDSCs ((Lineage-FITC (CD3, CD14, CD16, CD19, CD20, CD56) CD33-APC, HLA-DR-PerCp)) by flow cytometry. Sera CD200 levels were determined by ELISA (Sino Biological Inc.).
Lymph nodes were homogenized in RPMI media containing 10% FBS, penicillin/streptomycin (100 U/ml), and 0.1 mg/ml Normocin (Invivogen). […] Fifty microliters of supernatant was analyzed for IFN-γ using a flow cytometric bead array according to the manufacturer's protocol (BD Biosciences).

[2] = system: naïve splenocytes pulsed with purified CD200 protein; assay: Naive splenocytes pulsed with purified CD200 +/- CD200R antagonist: MDSC expansion and arginase-I; type: cell-based
Experimental: FIGS. 17A-17B. CD200R antagonist blocks MDSC expansion and tumor suppressive effects. (FIG. 17A) Murine glioma GL261 was incubated with naïve splenocytes in a trans-well plate+/−CD200R antagonist and analyzed for MDSC expansion and cytokine production. (FIG. 17B) Naïve splenocytes were pulsed with purified CD200+/−CD200R antagonist and analyzed for MDSC expansion and arginase-I production. Error bars are ±SEM, statistical significance was determined by one-way ANOVA, post hoc analysis by Dunn's multiple comparison test, *p<0.05, ** p<0.001.
Spleens were harvested homogenized in RPMI media containing 10% FBS, penicillin/streptomycin (100 U/ml), and 0.1 mg/ml Normocin (Invivogen). Cells were then filtered using a 70-micron filter, centrifuged, and resuspended in 5 ml of Ammonium-Chloride-Potassium buffer and incubated for 5 minutes at room temperature to lyse RBCs. […] Following 24 h incubation, CD200R antagonist peptide 6059 was added to the appropriate wells, incubated for 20 min prior to adding 5 μg of purified CD200 protein (Sino Biological) and incubated for a further 72 hrs, harvested and analyzed for anti-CD11b and […] population using an LSR II flow cytometer. […] Following incubation, 50 μl culture supernatant was analyzed for IFN-γ using a flow cytometric bead array according to the manufacturer's protocol (BD Biosciences). […]

NTIGDGGCY [Antagonist 6059]
Suppressive effects of the tumor environment (overall statement) ([1]; prime boost model, tumor-bearing mice): reversed the suppressive effects in tumor-bearing mice; also recorded: reverses the suppressive effects of the tumor environment; also recorded: blocks CD200 induced immune suppression
SIINFEKL-specific CD8 T cells (OVA-specific T cell expansion) ([1]; tumor bearing mice, OVA+Poly:ICLC +/- antagonist): reversed tumor induced suppression; also recorded: increased numbers of SIINFEKL-specific CD8 T-cells; also recorded: reversed the suppressive effects of the tumor microenvironment
SIINFEKL-specific CD8 T cells (OVA-specific T cell expansion) ([1]; tumor bearing mice, OVA+Poly:ICLC +/- antagonist, listed as CD200 antagonist): significantly enhanced the expansion of a SIINFEKL/CD8 T cell population
TNFα and IFNγ production after restimulation of cervical lymph node lymphocytes (recall response) ([1]; tumor bearing mice, OVA+Poly:ICLC +/- antagonist, restimulation with OVA/SIINFEKL, 48 hrs): modulate/reverse glioma-induced suppression; also recorded: significantly enhanced TNFγ and IFNγ production; also recorded: reversed the suppressive effects of the tumor microenvironment
CD200 induced arginase-I secretion [2]: blocked CD200 induced arginase-I secretion
CD200 induced MDSC expansion ([2]; pre-incubation with antagonist): significantly blocked CD200 induced MDSC expansion
